Source: paper PMC7057333 (ACS Omega, 2020)
Where two headings read alike, the source gives them in different places. Ends that are not written are not given here.

Assays:
LSD1 [1] = target: T1, LSD1 (Homo sapiens, UniProt O60341); experiment: HRP-coupled fluorescence LSD1 demethylation activity and inhibition assay, substrate H3_1-21 K4(Me); format: biochemical
T1 construct: made in house; host or cells: Escherichia coli Rosetta 2 (pET15b)

LSD1 [2] = target: T1, LSD1; experiment: SPR biosensor interaction kinetic assay with immobilized LSD1 (15 °C, TBS-T with DTT); format: binding
[3] = 100 μM, supplement sheet SMILES and Activity, read-out: Inhibition at 100 μM (%)

Q: With CSCC[C@H](NC(=O)[C@@H](NC(=O)[C@H](CCCNC(=N)N)NC(=O)[C@H](C)N)[C@@H](C)O)C(=O)N[C@@H](CCC(N)=O)C(=O)N[C@H](C(=O)N[C@@H](C)C(=O)N[C@@H](CCCNC(=N)N)C(=O)N[C@@H](CCCCN)C(=O)N[C@@H](CO)C(=O)N[C@H](C(=O)O)[C@@H](C)O)[C@@H](C)O [Peptide 4] as the compound, how does the IC50 (LSD1 [1]) read?
A: > 100 µM

Q: And the Kd (LSD1 [2]; KD, SPR, immobilized LSD1, 15 °C, ni = no interaction observed, ns = high nonspecific binding, weak interactions only approximated, highest concentration 200 μM)?
A: ~140 µM

Q: For C[C@H](N)C(=O)N[C@@H](CCCNC(=N)N)C(=O)N[C@H](C(=O)N[C@@H](CCCCN)C(=O)N[C@@H](CCC(N)=O)C(=O)N[C@H](C(=O)N[C@@H](C)C(=O)N[C@@H](CCCNC(=N)N)C(=O)N[C@@H](CCCCN)C(=O)N[C@@H](CO)C(=O)N[C@H](C(N)=O)[C@@H](C)O)[C@@H](C)O)[C@@H](C)O [Peptide 9], which Kd (LSD1 [2]) is on record?
A: > 100 µM

Q: CCCC[C@H](NC(=O)[C@@H](NC(=O)[C@H](CCCNC(=N)N)NC(=O)[C@H](C)N)[C@@H](C)O)C(=O)N[C@@H](CCC(N)=O)C(=O)N[C@H](C(=O)N[C@@H](C)C(=O)N[C@@H](CCCNC(=N)N)C(=O)N[C@@H](CCCCN)C(=O)N[C@@H](CO)C(=O)N[C@H](C(N)=O)[C@@H](C)O)[C@@H](C)O [Peptide 15, ART(Nle)QTARKST-NH2] was tested. Which Kd (LSD1 [2]) did it give?
A: > 200 µM

Q: Which Kd (LSD1 [2]) does the source give for CCCCCC[C@H](NC(=O)[C@@H](NC(=O)[C@H](CCCNC(=N)N)NC(=O)[C@H](C)N)[C@@H](C)O)C(=O)N[C@@H](CCC(N)=O)C(=O)N[C@H](C(=O)N[C@@H](C)C(=O)N[C@@H](CCCNC(=N)N)C(=O)N[C@@H](CCCCN)C(=O)N[C@@H](CO)C(=O)N[C@H](C(N)=O)[C@@H](C)O)[C@@H](C)O [Peptide 16, ART(Aoc)QTARKST-NH2] here?
A: > 200 µM

Q: C[C@H](N)C(=O)N[C@@H](CCCNC(=N)N)C(=O)N[C@H](C(=O)N[C@@H](CCc1ccccc1)C(=O)N[C@@H](CCC(N)=O)C(=O)N[C@H](C(=O)N[C@@H](C)C(=O)N[C@@H](CCCNC(=N)N)C(=O)N[C@@H](CCCCN)C(=O)N[C@@H](CO)C(=O)N[C@H](C(N)=O)[C@@H](C)O)[C@@H](C)O)[C@@H](C)O [Peptide 17, ART(homoPhe)QTARKST-NH2] was tested. Which Kd (LSD1 [2]) did it give?
A: > 200 µM

Q: Which inhibition at 100 µM (LSD1 [1]; [3]) does the source give for CSCC[C@@H]1NC(=O)[C@@H](NC(=O)[C@H](CCCNC(=N)N)NC(=O)[C@H](C)N)C/C=C\C[C@@H](C(=O)N[C@@H](C)C(=O)N[C@@H](CCCNC(=N)N)C(=O)N[C@@H](CCCCN)C(=O)N[C@@H](CO)C(=O)N[C@H](C(N)=O)[C@@H](C)O)NC(=O)[C@H](CCC(N)=O)NC1=O [Peptide 21, ARG^alyMQG^alyARKST-NH2] here?
A: 95%

Q: And the inhibition at 100 µM (LSD1 [1]; read-out: % inhibition at 100 μM)?
A: 95%

Q: What about the Kd (LSD1 [2]) of the same compound?
A: > 100 µM

Q: ARTMQTA-OH [Peptide 6, ARTMQTA-OH] was tested. Which Kd (LSD1 [2]) did it give?
A: > 200 µM

Q: Which results are given for PRTMQTARKST-NH2 [Peptide 11]?
A: Ki (LSD1 [1]): 8 µM; inhibition at 100 µM (LSD1 [1]; [3]): 93%; mode of inhibition (LSD1 [1]; enzyme activity assay, inhibition kinetics): competitive inhibitor; IC50 (LSD1 [1]; supplement sheet SMILES and Activity, read-out: IC50): 12.5 µM; Kd (LSD1 [2]): 10 µM
